The text below walks through data of US20180272034A1, “USE OF CSA COMPOUNDS TO PREVENT MICROBIAL BUILD-UP OR FOULING OF MEDICAL IMPLANTS” (BRIGHAM YOUNG UNIVERSITY, priority 2017, published 2018).

One data set concerns Pseudomonas aeruginosa. As to conditions: mixed-species biofilms grown 22 hours, 20 hours of treatment. On the procedure:
(§1) Several CSA compounds were tested against Pseudomonas aeruginosa and Staphylococcus aureus mixed-species biofilms grown for an initial 22 hours and subjected to 20 hours of treatment.

In another data set the test system is Staphylococcus aureus. Conditions: mixed-species biofilms grown 22 hours, 20 hours of treatment. On the procedure:
as §1

The test system of data set [1] is Pseudomonas aeruginosa (PA01). Kind of data set: Coated endotracheal tube segments, daily re-inoculation, growth in medium. Type of data set: cell-based. On the set-up: key to bacterial growth in medium, Day 1 / bacterial growth in medium, Day 2 / bacterial growth in medium, Day 3 / bacterial growth in medium, Day 4 / bacterial growth in medium, Day 5 / bacterial growth in medium, Day 6 / bacterial growth in medium, Day 7 / bacterial growth in medium, Day 10 / bacterial growth in medium, Day 8 / bacterial growth in medium, Day 9: N=no growth; G=growth. As to conditions: hydrogel coating 10% CSA-131 HCl, 3% citric acid, PA01 re-inoculated every 24 h. On the procedure:
A hydrogel coating containing 10% CSA-131 HCl and 3% citric acid, relative to the hydrogel solids, was tested for antibacterial efficacy using endotracheal tube segments (5.0 mm). These tube segments (surface area of ca. 1.5 cm^2) were dip coated and cured to give coatings of approximately 10 microns. Coated tube segments were washed in phosphate buffered saline (PBS) for varied amounts of time before testing. Antibacterial testing involved immersing tube segments in 10% TSB in PBS (1.0 mL) and inoculating with Pseudomonas aeruginosa (PA01)@10^6 colony forming units (CFU). Samples were incubated for 24 h, and bacterial growth in the medium was assayed visually (i.e., turbidity in the medium is caused by unrestricted bacterial growth). […] And the converse is true: if growth is supported in the medium that the device is colonized, to some extent.
After 24 h of incubation, tube segments were immersed in fresh growth media (10% TSB in PBS, 1 mL), re-inoculated, and incubated. […] Experiments were performed in triplicate. N=no growth, G=growth.
Antibacterial activity of a hydrogel coating (ca. 10 microns) containing CSA-131 2-NDSA (10% by weight relative to hydrogel solids) was determined as described in Example 8 using methicillin-resistant Staphylococcus aureus (MRSA) and Pseudomonas aeruginosa (PA01).

Data set [2] is described as follows: Hydrogel coating stability and reaction with ethylene oxide (ETO). On the procedure: Releases of CSA-131 from hydrogel-based coatings were investigated, including examining coating stability and reaction of the coating with ethylene oxide (ETO) during sterilization processes. […] To mask this reactivity, coatings were prepared including varies percentages of citric acid to form non-volatile salts of the CSA compound.
Using a jet mill (Fluid Energy), CSA-131 2-NDSA was milled to an average particle size of 200 nm.

≈ marks a conversion by molar mass, not a printed value.

With `CC(O)C1CCC2C3C(OCCCN)CC4CC(OCCCN)CCC4(C)C3CC(OCCCN)C12C.Cl.Cl.Cl` (mixture of isomers) [CSA-11], in the data set with Pseudomonas aeruginosa, the “MBC P. aeruginosa” value was greater than 200 µg/mL and the “MIC P. aeruginosa” value is greater than 200 µg/mL. Further, in the data set on Staphylococcus aureus, the “MBC S. aureus” value is 50 µg/mL and the “MIC S. aureus” value was found to be 50 µg/mL.

For `CCCCCCCCNCCC[C@@H](C)[C@H]1CC[C@H]2[C@@H]3[C@H](OCCCN)C[C@@H]4C[C@H](OCCCN)CC[C@]4(C)[C@H]3C[C@H](OCCCN)[C@]12C` [CSA-13], in the data set with Pseudomonas aeruginosa, the “MBC P. aeruginosa” value was determined as 6.25 µg/mL (≈ 9.23 µM) and the “MIC P. aeruginosa” value worked out at 3.125 µg/mL (≈ 4.62 µM). For the same compound, in the data set on Staphylococcus aureus, the “MBC S. aureus” value is 0.78 µg/mL (≈ 1.15 µM) and the “MIC S. aureus” value came out at 0.78 µg/mL (≈ 1.15 µM).

Consider `CC(CCCOCCCN)C1CCC2C3C(OCCCN)CC4CC(OCCCN)CCC4(C)C3CC(OCCCN)C12C.Cl.Cl.Cl.Cl` (stereo not drawn) [CSA-25], for which, in the data set with Pseudomonas aeruginosa, the “MBC P. aeruginosa” value was 50 µg/mL and the “MIC P. aeruginosa” value amounted to 25 µg/mL. Moreover, in the data set with Staphylococcus aureus, the “MBC S. aureus” value came out at 3.25 µg/mL and the “MIC S. aureus” value amounted to 1.56 µg/mL.

Consider `CCCCCCCCOC(=O)CC[C@@H](C)[C@H]1CC[C@H]2[C@@H]3[C@H](OC(=O)CCN)C[C@@H]4C[C@H](OC(=O)CCN)CC[C@]4(C)[C@H]3C[C@H](OC(=O)CCN)[C@]12C` [CSA-44], for which, in the data set on Pseudomonas aeruginosa, the “MBC P. aeruginosa” value came out at 6.25 µg/mL (≈ 8.51 µM) and the “MIC P. aeruginosa” value is 3.125 µg/mL (≈ 4.26 µM). Also, in the data set with Staphylococcus aureus, the “MBC S. aureus” value is 3.25 µg/mL (≈ 4.43 µM) and the “MIC S. aureus” value came to 1.56 µg/mL (≈ 2.13 µM).

In the case of `C[C@H](CCCNCCCNCCCN)[C@H]1CC[C@H]2[C@@H]3[C@H](OCCCN)C[C@@H]4C[C@H](OCCCN)CC[C@]4(C)[C@H]3C[C@H](OCCCN)[C@]12C.Cl.Cl.Cl.Cl.Cl.Cl` [CSA-54], in the data set on Pseudomonas aeruginosa, the “MBC P. aeruginosa” value came out at 100 µg/mL and the “MIC P. aeruginosa” value amounted to 50 µg/mL. Moreover, in the data set with Staphylococcus aureus, the “MBC S. aureus” value came out at 25 µg/mL and the “MIC S. aureus” value turned out to be 6.25 µg/mL.

Turning to `CCCCCN(CCCCC)CCC[C@@H](C)[C@H]1CC[C@H]2[C@@H]3[C@H](OCCCN)C[C@@H]4C[C@H](OCCCN)CC[C@]4(C)[C@H]3C[C@H](OCCCN)[C@]12C` [CSA-90], in the data set on Pseudomonas aeruginosa, the “MBC P. aeruginosa” value turned out to be 6.25 µg/mL (≈ 8.86 µM) and the “MIC P. aeruginosa” value worked out at 6.25 µg/mL (≈ 8.86 µM). For the same compound, in the data set on Staphylococcus aureus, the “MBC S. aureus” value came to 1.56 µg/mL (≈ 2.21 µM) and the “MIC S. aureus” value was 1.56 µg/mL (≈ 2.21 µM).

Turning to `CCCCCCCCCCCCNCCC[C@@H](C)[C@H]1CC[C@H]2[C@@H]3[C@H](OCCCN)C[C@@H]4C[C@H](OCCCN)CC[C@]4(C)[C@H]3C[C@H](OCCCN)[C@]12C.Cl.Cl.Cl.Cl` [CSA-131 HCl], in data set [1] (Unwashed), the “bacterial growth in medium, Day 1” value is given as “N”; the “bacterial growth in medium, Day 2” value was “N”; the “bacterial growth in medium, Day 3” value is “N”; the “bacterial growth in medium, Day 4” value was “N”. Moreover, in data set [1] (Unwashed), the “bacterial growth in medium, Day 5” value was “G”; the “bacterial growth in medium, Day 6” value is recorded as “G”; the “bacterial growth in medium, Day 7” value is reported as “G”. Besides, in data set [1] (Wash Time 15 min in PBS), the “bacterial growth in medium, Day 1” value is “N”; the “bacterial growth in medium, Day 2” value was “N”; the “bacterial growth in medium, Day 3” value is recorded as “N”; the “bacterial growth in medium, Day 4” value is “N”. Besides, in data set [1] (Wash Time 15 min in PBS), the “bacterial growth in medium, Day 5” value was “G”; the “bacterial growth in medium, Day 6” value is “G”; the “bacterial growth in medium, Day 7” value is on record as “G”. In data set [1] (Wash Time 30 min in PBS), the “bacterial growth in medium, Day 1” value was “N”; the “bacterial growth in medium, Day 2” value is given as “N”; the “bacterial growth in medium, Day 3” value was “N”; the “bacterial growth in medium, Day 4” value is given as “N”. Moreover, in data set [1] (Wash Time 30 min in PBS), the “bacterial growth in medium, Day 5” value was “G”; the “bacterial growth in medium, Day 6” value is “G”; the “bacterial growth in medium, Day 7” value is “G”. In data set [1] (Wash Time 1 hour in PBS), the “bacterial growth in medium, Day 1” value is recorded as “N”; the “bacterial growth in medium, Day 2” value is on record as “N”; the “bacterial growth in medium, Day 3” value is on record as “N”; the “bacterial growth in medium, Day 4” value was “N”. Also, in data set [1] (Wash Time 1 hour in PBS), the “bacterial growth in medium, Day 5” value is reported as “G”; the “bacterial growth in medium, Day 6” value was “G”; the “bacterial growth in medium, Day 7” value is reported as “G”. In data set [2] (CSA-131 HCl 10% relative to coating solids, prolonged soaking in buffer), the “mechanical integrity of coating on silicone tube segments” value is “some flaking of the coating”. Further, in data set [2] (hydrogel coating with at least 3% (by weight relative to hydrogel solids) citric acid), the ETO adduct formation entry was “eliminated”. In data set [2] (tube segments coated with hydrogel containing CSA-131 HCl (10%)), the “reaction with ETO during sterilization” value is “substantial reaction, leading to ETO adducts”.

In the case of `CCCCCCOC(=O)CCC(C)C1CCC2C3C(OC(=O)CCN)CC4CC(OC(=O)CCN)CCC4(C)C3CC(OC(=O)CCN)C12C.Cl.Cl.Cl` (stereo not drawn) [CSA-142], in the data set with Pseudomonas aeruginosa, the “MBC P. aeruginosa” value worked out at 3.125 µg/mL and the “MIC P. aeruginosa” value came to 3.125 µg/mL. For the same compound, in the data set on Staphylococcus aureus, the “MBC S. aureus” value stood at 3.125 µg/mL and the “MIC S. aureus” value was 3.125 µg/mL.

For the compound `CCCCCCCCCCOC(=O)CCC(C)C1CCC2C3C(OC(=O)CCN)CC4CC(OC(=O)CCN)CCC4(C)C3CC(OC(=O)CCN)C12C.Cl.Cl.Cl` (stereo not drawn) [CSA-144], in the data set on Pseudomonas aeruginosa, the “MBC P. aeruginosa” value is 50 µg/mL and the “MIC P. aeruginosa” value is 12.5 µg/mL. Also, in the data set on Staphylococcus aureus, the “MBC S. aureus” value amounted to 3.125 µg/mL and the “MIC S. aureus” value is 3.125 µg/mL.

For `CCCCCCCCCOC(=O)CCC(C)C1CCC2C3C(OC(=O)CCN)CC4CC(OC(=O)CCN)CCC4(C)C3CC(OC(=O)CCN)C12C.Cl.Cl.Cl` (stereo not drawn) [CSA-145], in the data set with Pseudomonas aeruginosa, the “MBC P. aeruginosa” value stood at 50 µg/mL and the “MIC P. aeruginosa” value was found to be 12.5 µg/mL. Further, in the data set on Staphylococcus aureus, the “MBC S. aureus” value was found to be 3.125 µg/mL and the “MIC S. aureus” value was determined as 3.125 µg/mL.

For the compound `CCCCCCCCNC(=O)CCC(C)C1CCC2C3C(OCCCN)CC4CC(OCCCN)CCC4(C)C3CC(OCCCN)C12C.Cl.Cl.Cl` (stereo not drawn) [CSA-192], in the data set with Pseudomonas aeruginosa, the “MBC P. aeruginosa” value came to 6.25 µg/mL and the “MIC P. aeruginosa” value came out at 3.125 µg/mL. Moreover, in the data set on Staphylococcus aureus, the “MBC S. aureus” value amounted to 1.56 µg/mL and the “MIC S. aureus” value is 0.78 µg/mL.

Take `CC[C@H](C)[C@H](NC(=O)[C@H](CCCCN)NC(=O)[C@H](CCC(=O)O)NC(=O)[C@H](CCCCN)NC(=O)[C@H](CO)NC(=O)[C@H](CCCCN)NC(=O)[C@H](CCCNC(=N)N)NC(=O)[C@H](Cc1ccccc1)NC(=O)[C@H](Cc1ccccc1)NC(=O)[C@H](CC(=O)O)NC(=O)CNC(=O)[C@H](CC(C)C)NC(=O)[C@@H](N)CC(C)C)C(=O)NCC(=O)N[C@@H](CCCCN)C(=O)N[C@@H](CCC(=O)O)C(=O)N[C@@H](Cc1ccccc1)C(=O)N[C@@H](CCCCN)C(=O)N[C@@H](CCCNC(=N)N)C(=O)N[C@H](C(=O)N[C@H](C(=O)N[C@@H](CCC(N)=O)C(=O)N[C@@H](CCCNC(=N)N)C(=O)N[C@H](C(=O)N[C@@H](CCCCN)C(=O)N[C@@H](CC(=O)O)C(=O)N[C@@H](Cc1ccccc1)C(=O)N[C@@H](CC(C)C)C(=O)N[C@@H](CCCNC(=N)N)C(=O)N[C@@H](CC(N)=O)C(=O)N[C@@H](CC(C)C)C(=O)N[C@H](C(=O)N1CCC[C@H]1C(=O)N[C@@H](CCCNC(=N)N)C(=O)N[C@H](C(=O)N[C@@H](CCC(=O)O)C(=O)N[C@@H](CO)C(=O)O)[C@@H](C)O)C(C)C)[C@@H](C)CC)C(C)C)[C@@H](C)CC` [LL-37, reference compound]: in the data set with Pseudomonas aeruginosa, the “MBC P. aeruginosa” value is greater than 200 µg/mL and the “MIC P. aeruginosa” value was greater than 200 µg/mL. In the data set on Staphylococcus aureus, the “MBC S. aureus” value was greater than 200 µg/mL and the “MIC S. aureus” value was greater than 200 µg/mL.
